Experiment [1] has as its target MMP-9 (Homo sapiens, UniProt P14780). Briefly: K(obs) of individual phage substrates (set of 1369). It counts as biochemical. The settings on record: MMP9; individual phage substrate of the set of 1369 peptides; dash in sequence marks cleavage position.
The test system of experiment [2] is MMP-9. The experiment is described as follows: Substrate phage display with NGS: relative probability (RP) of P3-P1' tetramer clusters.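 Further: ratio of tetramer probability after protease selection to that in naive phage library.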 Format: biochemical, human. The settings on record: MMP9; RP of the substrate's P3-P1' tetramer, substrate phage display with NGS.
A further experiment addresses T1, MMP-2 (Homo sapiens, UniProt P08253).
T1 sequence (P08253 110-660): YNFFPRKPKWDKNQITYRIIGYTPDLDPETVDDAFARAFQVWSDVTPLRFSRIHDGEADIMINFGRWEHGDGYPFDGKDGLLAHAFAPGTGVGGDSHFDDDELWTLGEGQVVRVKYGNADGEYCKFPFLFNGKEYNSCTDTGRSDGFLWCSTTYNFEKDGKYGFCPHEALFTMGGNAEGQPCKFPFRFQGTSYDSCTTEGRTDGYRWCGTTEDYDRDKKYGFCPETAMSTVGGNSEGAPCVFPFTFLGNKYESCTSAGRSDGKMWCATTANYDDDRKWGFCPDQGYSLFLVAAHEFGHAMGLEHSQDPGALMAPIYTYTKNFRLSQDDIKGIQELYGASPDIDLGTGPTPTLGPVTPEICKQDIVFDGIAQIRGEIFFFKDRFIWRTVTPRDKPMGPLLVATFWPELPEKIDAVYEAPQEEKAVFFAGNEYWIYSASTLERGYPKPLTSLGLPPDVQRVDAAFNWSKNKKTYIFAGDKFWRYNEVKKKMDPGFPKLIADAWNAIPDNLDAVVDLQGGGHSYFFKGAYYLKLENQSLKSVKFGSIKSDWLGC
Briefly: K(obs) of individual phage substrates (set of 1369). The settings on record: MMP2; individual phage substrate from the set of 1369 peptides; hyphen in the sequence marks the cleavage position. Format: biochemical.

MMP-9 (Homo sapiens, UniProt P14780), sequence (P14780 94-707): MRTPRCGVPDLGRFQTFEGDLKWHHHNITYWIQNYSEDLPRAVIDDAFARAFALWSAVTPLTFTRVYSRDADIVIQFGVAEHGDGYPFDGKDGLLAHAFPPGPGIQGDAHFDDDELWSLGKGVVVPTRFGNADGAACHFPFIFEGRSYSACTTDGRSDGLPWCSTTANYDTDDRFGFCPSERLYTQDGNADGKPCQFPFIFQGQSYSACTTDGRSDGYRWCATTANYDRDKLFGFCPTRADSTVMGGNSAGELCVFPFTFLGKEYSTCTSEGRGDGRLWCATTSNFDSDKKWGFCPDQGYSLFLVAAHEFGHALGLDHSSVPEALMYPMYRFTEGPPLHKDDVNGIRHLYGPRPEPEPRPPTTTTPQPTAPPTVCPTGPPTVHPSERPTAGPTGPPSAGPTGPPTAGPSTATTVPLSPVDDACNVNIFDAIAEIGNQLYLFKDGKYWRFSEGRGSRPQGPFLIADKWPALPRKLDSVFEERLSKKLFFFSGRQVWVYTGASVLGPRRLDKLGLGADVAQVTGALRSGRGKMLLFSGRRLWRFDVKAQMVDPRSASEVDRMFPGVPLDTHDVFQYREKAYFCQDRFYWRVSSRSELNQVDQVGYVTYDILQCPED

Take AHPSA-LTASG: the “Kobs” value on MMP-9 [1] and at MMP-2 was 12792.1 M⁻¹ s⁻¹ each time. Moreover, the “relative probability (RP)” value in the experiment with MMP-9 [2] was 47.6113.
Turning to AMPKH-LTASG, the “Kobs” value at MMP-9 [1] and at MMP-2 was 12792.1 M⁻¹ s⁻¹ throughout. The “relative probability (RP)” value in the experiment on MMP-9 [2] is listed as 46.5072.
In the case of ATLAA-LTASG, the “Kobs” value at MMP-9 [1] worked out at 0 M⁻¹ s⁻¹; at MMP-2, 12792.1 M⁻¹ s⁻¹. Further, the “relative probability (RP)” value with MMP-9 [2] came out at 6.32.
Turning to ATLAA-WTASG, the “Kobs” value on MMP-9 [1] is 113.394 M⁻¹ s⁻¹; on MMP-2 it was 10866.7 M⁻¹ s⁻¹. For the same substance, the “relative probability (RP)” value with MMP-9 [2] is recorded as 1.553.
The matching figures for CAPTA-LTASG: 10866.7 M⁻¹ s⁻¹, 12792.1 M⁻¹ s⁻¹ and 40.9775.
In the same order, the values of DSPLS-LTASG are 12792.1 M⁻¹ s⁻¹, 12792.1 M⁻¹ s⁻¹ and 48.1735.
Take EAIGR-LTASG: the “Kobs” value was determined as 517.582 M⁻¹ s⁻¹ on MMP-9 [1] and 12792.1 M⁻¹ s⁻¹ on MMP-2. Also, the “relative probability (RP)” value in the experiment with MMP-9 [2] is reported as 4.541.
The matching figures for EGPMR-LTASG: 12792.1 M⁻¹ s⁻¹, 12792.1 M⁻¹ s⁻¹ and 42.6597.
In the same order, the values of EHPGL-LTASG are 113.394 M⁻¹ s⁻¹, 2996.69 M⁻¹ s⁻¹ and 19.6268.
The matching figures for ERPFF-LTASG: 12792.1 M⁻¹ s⁻¹, 12792.1 M⁻¹ s⁻¹ and 36.9909.
On to ESIRG-LTASG, for which the “Kobs” value at MMP-9 [1] turned out to be 6688.74 M⁻¹ s⁻¹; at MMP-2 it was 12792.1 M⁻¹ s⁻¹. Moreover, the “relative probability (RP)” value in the experiment on MMP-9 [2] was determined as 41.2198.
In the same order, the values of ESIRH-LTASG are 5667.28 M⁻¹ s⁻¹, 12792.1 M⁻¹ s⁻¹ and 35.7683.
The matching figures for EWPSR-MTASG: 3964.21 M⁻¹ s⁻¹, 6396.07 M⁻¹ s⁻¹ and 33.7336.
In the same order, the values of FAPAE-VTASG are 3438.54 M⁻¹ s⁻¹, 12792.1 M⁻¹ s⁻¹ and 5.593.
As for FDVWM-LTASG, the “Kobs” value came out at 1283.43 M⁻¹ s⁻¹ at MMP-9 [1] and 912.511 M⁻¹ s⁻¹ at MMP-2. In addition, in the experiment on MMP-9 [2], the “relative probability (RP)” value was determined as 17.1619.
The matching figures for FEPQR-MTASG: 7815.03 M⁻¹ s⁻¹, 690.17 M⁻¹ s⁻¹ and 31.7168.
Take FHPSR-FTASG: the entries for the “Kobs” value on MMP-9 [1] and at MMP-2 were 2916.17 M⁻¹ s⁻¹ and 12792.1 M⁻¹ s⁻¹, respectively. For the same substance, the “relative probability (RP)” value in the experiment on MMP-9 [2] was 21.0555.
FIPFP-FTASG: the “Kobs” value at MMP-9 [1] and at MMP-2 was 12792.1 M⁻¹ s⁻¹ in each case. Further, in the experiment on MMP-9 [2], the “relative probability (RP)” value is on record as 42.1583.
For the substance FIPMW-STASG, the “Kobs” value turned out to be 6131.32 M⁻¹ s⁻¹ at MMP-9 [1] and 451.441 M⁻¹ s⁻¹ on MMP-2. Also, in the experiment with MMP-9 [2], the “relative probability (RP)” value worked out at 27.7553.
In the same order, the values of FKAVA-LTASG are 12792.1 M⁻¹ s⁻¹, 12792.1 M⁻¹ s⁻¹ and 32.1946.
The matching figures for FLPRM-LTASG: 12792.1 M⁻¹ s⁻¹, 12792.1 M⁻¹ s⁻¹ and 42.2884.
In the same order, the values of FQIGS-LTASG are 1465.65 M⁻¹ s⁻¹, 12792.1 M⁻¹ s⁻¹ and 7.1912.
Take FVVRL-LTASG: the “Kobs” value at MMP-9 [1] and at MMP-2 was 2615.58 M⁻¹ s⁻¹ throughout. For the same substance, the “relative probability (RP)” value in the experiment on MMP-9 [2] is on record as 11.0035.
On to FYFSN-LTASG, for which the results for the “Kobs” value at MMP-9 [1] and at MMP-2 were 0 M⁻¹ s⁻¹ and 12792.1 M⁻¹ s⁻¹, respectively. For the same substance, the “relative probability (RP)” value with MMP-9 [2] worked out at 0.7913.
Consider GAPAK-LRTAS, for which the entries for the “Kobs” value at MMP-9 [1] and on MMP-2 were 10866.7 M⁻¹ s⁻¹ and 12792.1 M⁻¹ s⁻¹, respectively. In addition, the “relative probability (RP)” value in the experiment with MMP-9 [2] was 39.5582.
In the case of GAPAR-FTTAS, the “Kobs” value at MMP-9 [1] came out at 1071.29 M⁻¹ s⁻¹; at MMP-2 it was 12792.1 M⁻¹ s⁻¹. Further, the “relative probability (RP)” value with MMP-9 [2] was determined as 21.7112.
As for GDPRW-LSTAS, the “Kobs” value at MMP-9 [1] worked out at 9740.44 M⁻¹ s⁻¹; on MMP-2, 6688.74 M⁻¹ s⁻¹. Moreover, the “relative probability (RP)” value in the experiment with MMP-9 [2] was 47.776.
The matching figures for GEPLF-LRTAS: 12792.1 M⁻¹ s⁻¹, 12792.1 M⁻¹ s⁻¹ and 38.6603.
The matching figures for GEPSA-YRTAS: 12792.1 M⁻¹ s⁻¹, 12792.1 M⁻¹ s⁻¹ and 46.6524.
On to GFPRA-FRTAS, for which the “Kobs” value came out at 7815.03 M⁻¹ s⁻¹ on MMP-9 [1] and 12792.1 M⁻¹ s⁻¹ on MMP-2. The “relative probability (RP)” value with MMP-9 [2] was determined as 44.1248.
In the same order, the values of GFTRW-LTASG are 6396.07 M⁻¹ s⁻¹, 4763.33 M⁻¹ s⁻¹ and 25.6075.
Consider GFVFE-LRTAS, for which the results for the “Kobs” value on MMP-9 [1] and on MMP-2 were 9740.44 M⁻¹ s⁻¹ and 5889.62 M⁻¹ s⁻¹, respectively. Moreover, the “relative probability (RP)” value with MMP-9 [2] amounted to 20.3412.
In the same order, the values of GGIAA-MRTAS are 386.839 M⁻¹ s⁻¹, 1071.29 M⁻¹ s⁻¹ and 10.5791.
As to GGPAP-MWTAS, the entries for the “Kobs” value at MMP-9 [1] and on MMP-2 were 5667.28 M⁻¹ s⁻¹ and 2476.66 M⁻¹ s⁻¹, respectively. Further, the “relative probability (RP)” value with MMP-9 [2] came out at 45.1106.
In the case of GGPST-LTASG, the “Kobs” value on MMP-9 [1] was determined as 4613.14 M⁻¹ s⁻¹; at MMP-2 it was 9740.44 M⁻¹ s⁻¹. For the same substance, in the experiment with MMP-9 [2], the “relative probability (RP)” value was 36.3405.
In the same order, the values of GGSGN-LTVKT are 0 M⁻¹ s⁻¹, 12792.1 M⁻¹ s⁻¹ and 1.504.
Regarding GHIAW-FTASG, the “Kobs” value at MMP-9 [1] stood at 1513.13 M⁻¹ s⁻¹; on MMP-2 it was 12792.1 M⁻¹ s⁻¹. The “relative probability (RP)” value in the experiment with MMP-9 [2] came to 7.9655.
In the same order, the values of GHPSP-FTASG are 0 M⁻¹ s⁻¹, 12792.1 M⁻¹ s⁻¹ and 37.3217.
As to GLARA-LKTAS, the “Kobs” value stood at 4335.13 M⁻¹ s⁻¹ on MMP-9 [1] and 12792.1 M⁻¹ s⁻¹ on MMP-2. In addition, in the experiment on MMP-9 [2], the “relative probability (RP)” value is listed as 38.5396.
Take GLPAA-LTTAS: the “Kobs” value on MMP-9 [1] and at MMP-2 was 12792.1 M⁻¹ s⁻¹ in each case. The “relative probability (RP)” value in the experiment on MMP-9 [2] came to 47.6262.
As to GLVWN-LWTAS, the “Kobs” value turned out to be 8321.48 M⁻¹ s⁻¹ at MMP-9 [1] and 1660.66 M⁻¹ s⁻¹ at MMP-2. Further, in the experiment with MMP-9 [2], the “relative probability (RP)” value is given as 38.922.
In the same order, the values of GMLRA-MHTAS are 3253.29 M⁻¹ s⁻¹, 6396.07 M⁻¹ s⁻¹ and 36.706.
In the same order, the values of GMPGR-LSTAS are 517.582 M⁻¹ s⁻¹, 7015.91 M⁻¹ s⁻¹ and 29.3451.
In the same order, the values of GMPLG-LRTAS are 12792.1 M⁻¹ s⁻¹, 10866.7 M⁻¹ s⁻¹ and 48.9856.
Turning to GMPLL-LRTAS, the results for the “Kobs” value on MMP-9 [1] and at MMP-2 were 12792.1 M⁻¹ s⁻¹ and 8321.48 M⁻¹ s⁻¹, respectively. The “relative probability (RP)” value in the experiment with MMP-9 [2] is 32.5638.
In the case of GMPRA-YRTAS, the “Kobs” value on MMP-9 [1] and on MMP-2 was 12792.1 M⁻¹ s⁻¹ throughout. Further, the “relative probability (RP)” value with MMP-9 [2] was 46.2238.
As for GMPRS-YITAS, the “Kobs” value on MMP-9 [1] and at MMP-2 was 12792.1 M⁻¹ s⁻¹ each time. Moreover, the “relative probability (RP)” value with MMP-9 [2] is 44.546.
In the case of GMVLG-LHTAS, the “Kobs” value on MMP-9 [1] and on MMP-2 was 12792.1 M⁻¹ s⁻¹ in each case. For the same substance, the “relative probability (RP)” value in the experiment on MMP-9 [2] was determined as 34.6877.
GMVRG-VTASG: the entries for the “Kobs” value at MMP-9 [1] and at MMP-2 were 2761.81 M⁻¹ s⁻¹ and 7386.83 M⁻¹ s⁻¹, respectively. In addition, the “relative probability (RP)” value in the experiment on MMP-9 [2] is reported as 13.8249.
In the same order, the values of GNPAQ-MRTAS are 7015.91 M⁻¹ s⁻¹, 12792.1 M⁻¹ s⁻¹ and 38.7952.
In the same order, the values of GNPLG-IRTAS are 12792.1 M⁻¹ s⁻¹, 12792.1 M⁻¹ s⁻¹ and 48.5606.
GQPRA-IRTAS: the “Kobs” value at MMP-9 [1] and at MMP-2 was 12792.1 M⁻¹ s⁻¹ throughout. Besides, in the experiment with MMP-9 [2], the “relative probability (RP)” value was found to be 47.8426.
In the case of GRATA-LYTAS, the entries for the “Kobs” value at MMP-9 [1] and at MMP-2 were 1283.43 M⁻¹ s⁻¹ and 4082.43 M⁻¹ s⁻¹, respectively. For the same substance, in the experiment with MMP-9 [2], the “relative probability (RP)” value is listed as 15.5991.
In the same order, the values of GRLLA-MHTAS are 1112.44 M⁻¹ s⁻¹, 2687.73 M⁻¹ s⁻¹ and 12.6533.
